Measurements from the supplement of paper PMC11061612.

How the values were obtained:
Assay in all cases: combination Emax (second highest fraction inhibited in the dose matrix, 72 h); higher = more inhibition; extreme values may be limits of the assay
[1] = system: OAW-42 (Ovarian Carcinoma)
Procedure, shortened: (§1)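 Bliss excess equals the observed combination effect minus the expected value EA + EB − EA·EB, where EA and EB are the effects of each agent alone. Combination Emax is the second-highest inhibition within the matrix. Inhibition was scaled from CellTiter-Glo 2.0 luminescence, with 0 set by vehicle wells and 1 by blank wells, after 72 hours of two-drug dosing of cells plated in 1536-well plates.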

[2] = system: SHP-77 (Small Cell Lung Carcinoma)
Procedure, shortened: as §1

[3] = system: LK-2 (Squamous Cell Lung Carcinoma)
Procedure, shortened: as §1

[4] = system: HEC-1 (Endometrial Carcinoma)
Procedure, shortened: as §1

[5] = system: L-1236 (Hodgkin's Lymphoma)
Procedure, shortened: as §1

[6] = system: HCT-15 (Colorectal Carcinoma)
Procedure, shortened: as §1

[7] = system: SU-DHL-10 (B-Cell Non-Hodgkin's Lymphoma)
Procedure, shortened: as §1

[8] = system: FADU (Head and Neck Carcinoma)
Procedure, shortened: as §1

IST-MES1 (Mesothelioma) = system: IST-MES1 (Mesothelioma)
Procedure, shortened: as §1

SF539 (Glioblastoma) = system: SF539 (Glioblastoma)
Procedure, shortened: as §1

[9] = system: TE-8 (Esophageal Squamous Cell Carcinoma)
Procedure, shortened: as §1

LN-229 (Glioblastoma) = system: LN-229 (Glioblastoma)
Procedure, shortened: as §1

[10] = system: SK-PN-DW (Other Solid Carcinomas)
Procedure, shortened: as §1

[11] = system: 23132-87 (Gastric Carcinoma)
Procedure, shortened: as §1

WM278 (Melanoma) = system: WM278 (Melanoma)
Procedure, shortened: as §1

[12] = system: NCI-H23 (Lung Adenocarcinoma)
Procedure, shortened: as §1

[13] = system: LXF-289 (Lung Adenocarcinoma)
Procedure, shortened: as §1

[14] = system: RKN (Other Solid Carcinomas)
Procedure, shortened: as §1

[15] = system: OPM-2 (Plasma Cell Myeloma)
Procedure, shortened: as §1

GB-1 (Glioblastoma) = system: GB-1 (Glioblastoma)
Procedure, shortened: as §1

SMILES	combination Emax [1]	combination Emax [2]	combination Emax [3]	combination Emax [4]	combination Emax [5]	combination Emax [6]	combination Emax [7]	combination Emax [8]	combination Emax (IST-MES1 (Mesothelioma))	combination Emax (SF539 (Glioblastoma))	combination Emax [9]	combination Emax (LN-229 (Glioblastoma))	combination Emax [10]	combination Emax [11]	combination Emax (WM278 (Melanoma))	combination Emax [12]	combination Emax [13]	combination Emax [14]	combination Emax [15]	combination Emax (GB-1 (Glioblastoma))
CN(CCO)CC[C@H](CSc1ccccc1)Nc1ccc(S(=O)(=O)NC(=O)c2ccc(N3CCC([C@@H](O)c4ccccc4-c4ccc(Cl)cc4)CC3)cc2)cc1S(=O)(=O)C(F)(F)F [AZD4320] + C[C@@H]1COCCN1C2=NC(=NC(=C2)C3(CC3)[S@](=N)(=O)C)C4=C5C=CNC5=NC=C4 [AZD6738] (first compound max 1 µM, 7x7, partner max 10 µM)	0.748	0.662	0.769	0.613	0.992	0.756	0.899	0.583	0.296	0.959	0.799	0.797	0.947	0.84	0.789	0.85	0.689	0.242	0.927	0.55
CC(=O)c1c(C)c2cnc(Nc3ccc(N4CCNCC4)cn3)nc2n(C2CCCC2)c1=O [Palbociclib] + CC1(C)CCC(CN2CCN(c3ccc(C(=O)NS(=O)(=O)c4ccc(NCC5CCOCC5)c([N+](=O)[O-])c4)c(Oc4cnc5[nH]ccc5c4)c3)CC2)=C(c2ccc(Cl)cc2)C1 [Venetoclax] (first compound max 10 µM, 7x7, partner max 1 µM)	0.105	0.671	0.102	0.0102	0.611	0.526	1	0.17	0.253	0.262	0.286	0.0912	0.257	0.17	0.185	0.168	0.225	0.102	0.38	0.15
COc1nnc2ccc(N3CCC(c4ccc(OCCN5CCN(C)C(=O)[C@H]5C)cc4)CC3)nn12 [AZD5153] + CCN(CCO)CCCOc1ccc2c(Nc3cc(CC(=O)Nc4cccc(F)c4)[nH]n3)ncnc2c1 [AZD2811] (first compound max 1 µM, 7x7, partner max 1 µM)	0.459	0.432	0.625	0.607	0.988	0.807	1	0.533	0.653	0.699	0.556	0.411	0.726	0.173	0.466	0.666	0.82	0.44	1	0.243
